Source: patent US20070077583A1, “Alpha enolase-directed diagnostics and therapeutics for cancer and chemotherapeutic drug resistance” (Aurelium BioPharma, Inc., priority 2005, published 2007)
“Also recorded” adds a separate entry of the source. Like-named read-outs stand apart in the source and are kept apart here.

What was measured:
MCF-7 cells = test: MTT cytotoxicity assay, MCF-7 cells transfected with α-enolase siRNA; type: cell-based, human
Method: For a typical siRNA transfection, 1 nmole of the annealed siRNA duplex was mixed with 1.4 ml of Opti-MEM reagent (Invitrogen). In another tube, […] of Oligofectamine reagent (Invitrogen, Carlsbad, Calif.) is mixed with […] of Opti-MEM. The two solutions are combined and mixed gently by inversion and incubated for 20 min. at RT. The resulting solution is added to the cultured cells drop by drop in a 10 cm dish (cells are approximately 40-50% confluent). The next day the transfected cells were trypsinized and seeded in 6 or 96-well plates and further incubated for the indicated amount of time (assay dependent) before further analysis.
To evaluate the effect of α-enolase depletion on the chemosensitivity of cells to cytotoxic agents, MTT assays were performed in breast adenocarcinoma MCF-7 cells transfected with α-enolase specific siRNAs. […] The predicted EC50 values (the effective dose of a compound responsible for a positive effect half-way between baseline and maximum net impact) for the α-enolase-depleted cells are shown in Table 3. Similarly, results using other chemotherapeutic drugs are also shown in the table indicating the sensitivity of breast cancer tissue to α-enolase depletion.

H460 cells = test: MTT cytotoxicity assay, H460 cells transfected with α-enolase siRNA; type: cell-based, human
Method: To establish the effectiveness of α-enolase silencing on other cancer cell types, H460 non-small cell lung cancer cells were challenged with a chemotherapeutic drug, MTT cytotoxicity assays were carried out and survival curves plotted as shown in FIG. 17.

A549 cells = test: MTT cytotoxicity assay, A549 cells transfected with α-enolase siRNA
Method: Small interfering RNA transfected cells were seeded in triplicate into 96-well plates at 5×10^3 cells/well 48 hrs post-transfection. The cells were incubated for an additional 16-24 hrs before they were exposed to increasing concentrations of cytotoxic drugs. […] Appropriate dilutions were made in the respective media for each cell line. Following addition of drugs, incubation was continued for an additional 72 hrs. Twenty-five ml of MTT dye (5 mg/ml) were added into each well and the plate was further incubated at 37° C. for 4 hrs. The dye was solubilized with 10% Triton X-100, 0.01 N HCl and further incubated at 37° C. in the dark for 30 min. Cell viability was determined by measure of absorption at 570 nm in a Wallac multiwell plate reader (PerkinElmer, Inc., Boston, Mass.). The averages of triplicate wells were plotted using the Prism software (GraphPad Software, Inc., San Diego, Calif.).
To investigate if α-enolase is broadly involved in mediating drug resistance to microtubule targeting agents, non-small cell lung cancer cell lines A549 and H460, respectively, were transfected with α-enolase siRNA and enolase expression and viability were assessed.

PC-3 cells = test: MTT cytotoxicity assay, PC-3 cells transfected with α-enolase siRNA; type: cell-based; conditions: for EC50: Homo sapiens
MDA-435 cells = test: cells; type: cell-based, human; conditions: MDA-435 cells; for EC50: Homo sapiens, MDA435
Method: Similar tests utilizing α-enolase siRNA were performed on MDA-435 breast adenocarcinoma cells. Chemosensitivity to various drugs was determined for the MDA-435 cells as described above.

CaOV3 cells = test: MTT cytotoxicity assay, CaOV3 cells transfected with α-enolase RNAi; type: cell-based, human; conditions: for EC50: Homo sapiens, 72 hours post transfection
Text: These observations were expanded by targeting α-enolase in the ovarian cancer cell line, CaOV3.

[1] = control, read-out: Control (EC50)
[2] = α-enolase specific siRNA, read-out: α-Enolase (EC50)
[3] = Homo sapiens, MCF7, MCF-7 cells, control siRNA, 72 hrs drug, read-out: Control (EC50)
[4] = Homo sapiens, MCF7, MCF-7 cells, α-enolase specific siRNA, read-out: α-Enolase (EC50)
[5] = Homo sapiens, NCI-H460, control, read-out: Control (EC50)
[6] = Homo sapiens, NCI-H460, α-enolase specific siRNA, read-out: α-Enolase (EC50)
[7] = Homo sapiens, A549, read-out: Control (EC50)
[8] = Homo sapiens, A549, read-out: α-Enolase (EC50)
[9] = Eno-1 siRNA, read-out: Eno-1 (EC50)
[10] = Eno-1 stealth siRNA, read-out: Eno-1 ST (EC50)
[11] = control siRNA, read-out: Control (EC50)
[12] = mock transfection, read-out: Mock (EC50)

Row | Structure (SMILES) | viability of α-enolase-silenced cells under drug treatment vs control cells (H460 cells) | EC50 (MCF-7 cells; [3]) [nM] | EC50 (MCF-7 cells; [4]) [nM] | EC50 (H460 cells; [5]) [nM] | EC50 (H460 cells; [6]) [nM] | chemosensitivity of α-enolase-silenced cells (words) (A549 cells; A549 cells) | EC50 (A549 cells; [7]) [nM] | EC50 (A549 cells; [8]) [nM] | also measured
1 | N.N.[Cl][Pt][Cl] [Cisplatinum] | decreased the viability |  |  |  |  |  |  |  | EC50 (MCF-7 cells; MCF-7 cells, control siRNA, 72 hrs drug, read-out: Control (EC50)): 118000 nM; EC50 (MCF-7 cells; MCF-7 cells, α-enolase specific siRNA, read-out: α-Enolase (EC50)): 92000 nM; EC50 (H460 cells; [1]): 44.4 nM; EC50 (H460 cells; [2]): 24 nM; EC50 (A549 cells; read-out: Control (EC50), A549 cells, control siRNA): 327000 nM; EC50 (A549 cells; read-out: α-Enolase (EC50), A549 cells, α-enolase specific siRNA): 218000 nM
2 | CC(=O)O[C@@]12CO[C@@H]1C[C@H](O)[C@@]1(C)C(=O)[C@H](O)C3=C(C)[C@@H](OC(=O)[C@H](O)[C@@H](NC(=O)OC(C)(C)C)c4ccccc4)C[C@@](O)([C@@H](OC(=O)c4ccccc4)[C@H]21)C3(C)C [Docetaxel] | decreased the viability | 73.5 | 36.5 | 1.36 | 0.663 | enhanced chemosensitivity; also recorded: significant shifts in their chemosensitivities | 7.01 | 0.351 | EC50 (PC-3 cells; [1]): 0.348 nM; EC50 (PC-3 cells; [2]): 0.0547 nM; EC50 (MDA-435 cells; [9]): 0.182 nM; EC50 (MDA-435 cells; [10]): 0.124 nM; EC50 (MDA-435 cells; [11]): 0.645 nM; EC50 (MDA-435 cells; [12]): 0.226 nM; sensitivity of α-enolase-silenced cells (MDA-435 cells): Increases in sensitivity
3 | COc1cccc2c1C(=O)c1c(O)c3c(c(O)c1C2=O)C[C@@](O)(C(=O)CO)C[C@@H]3O[C@H]1C[C@H](N)[C@H](O)[C@H](C)O1 [Doxorubicin] | greatest decreases in viability | 90600 | 62600 | 119 | 30 |  | 289 | 297 | 
4 | COc1cc([C@@H]2c3cc4c(cc3[C@@H](O[C@@H]3O[C@@H]5CO[C@@H](C)O[C@H]5[C@H](O)[C@H]3O)[C@H]3COC(=O)[C@H]23)OCO4)cc(OC)c1O [Etoposide] | decreased the viability | 16100 | 27000 | 5370 | 1910 | increased sensitivity | 20500 | 10100 | 
5 | N[C@@H](Cc1ccc(N(CCCl)CCCl)cc1)C(=O)O [Melphalan] |  |  |  |  |  |  |  |  | EC50 (MCF-7 cells; Homo sapiens, MCF7, 72 h, read-out: Control (EC50)): 14700 nM; EC50 (MCF-7 cells; Homo sapiens, MCF7, read-out: α-Enolase (EC50)): 11500 nM
6 | O=C1c2c(O)ccc(O)c2C(=O)c2c(NCCNCCO)ccc(NCCNCCO)c21 [Mitoxantrone] | decreased the viability | 8680 | 7820 | 224 | 70.8 | increased sensitivity | 136 | 88.8 | 
7 | CC[C@]1(O)C[C@@H]2CN(CCc3c([nH]c4ccccc34)[C@@](C(=O)OC)(c3cc4c(cc3OC)N(C)[C@H]3[C@@](O)(C(=O)OC)[C@H](OC(C)=O)[C@]5(CC)C=CCN6CC[C@]43[C@@H]65)C2)C1 [Vinblastin] | decreased the viability |  |  | 3.09 | 1.54 | enhanced chemosensitivity | 2.39 | 0.076 | EC50 (PC-3 cells; [1]): 0.0529 nM; EC50 (PC-3 cells; [2]): 0.00553 nM; combination with enolase siRNA in cell killing (PC-3 cells; listed as vinblastine): synergistic; also recorded: augment PC-3 cell killing; decrease of chemotherapeutic drug resistance by α-enolase-directed siRNA vs mock siRNA (CaOV3 cells): 8 fold; EC50 (CaOV3 cells; Caov-3, control, read-out: Control (EC50)): 0.022 nM; EC50 (CaOV3 cells; Caov-3, α-enolase specific RNAi, read-out: α-Enolase (EC50)): 0.00349 nM; chemosensitivity of α-enolase-silenced cells (words) (A549 cells; A549 cells, listed as vinblastine): significant shifts in their chemosensitivities; EC50 (MDA-435 cells; [9]): 0.872 nM; EC50 (MDA-435 cells; [10]): 0.917 nM; EC50 (MDA-435 cells; [11]): 0.709 nM; EC50 (MDA-435 cells; [12]): 1.04 nM
